Experimental data from ChEMBL document CHEMBL6182948 (J Med Chem, 2025).

Key:
[1] = Stability in human plasma assessed as compound remaining at 100 uM measured after 5 mins by LC-MS/MS analysis; format: ADME, cell-free; settings: read-out: Stability
[2] = Stability in human plasma assessed as half life at 100 uM measured up to 120 mins by LC-MS/MS analysis; format: ADME, cell-free
CYP2D6 = CYP2D6 (Homo sapiens, UniProt P10635); experiment: Inhibition of CYP2D6 in human liver microsome at 10 uM pre-incubated with compound for 5 mins followed NADPH addition and measured after 10 mins by LC-MS/MS analysis relative to control; format: ADME; settings: liver microsomes, time 15 min
Chain of CYP2D6 (P10635 whole entry): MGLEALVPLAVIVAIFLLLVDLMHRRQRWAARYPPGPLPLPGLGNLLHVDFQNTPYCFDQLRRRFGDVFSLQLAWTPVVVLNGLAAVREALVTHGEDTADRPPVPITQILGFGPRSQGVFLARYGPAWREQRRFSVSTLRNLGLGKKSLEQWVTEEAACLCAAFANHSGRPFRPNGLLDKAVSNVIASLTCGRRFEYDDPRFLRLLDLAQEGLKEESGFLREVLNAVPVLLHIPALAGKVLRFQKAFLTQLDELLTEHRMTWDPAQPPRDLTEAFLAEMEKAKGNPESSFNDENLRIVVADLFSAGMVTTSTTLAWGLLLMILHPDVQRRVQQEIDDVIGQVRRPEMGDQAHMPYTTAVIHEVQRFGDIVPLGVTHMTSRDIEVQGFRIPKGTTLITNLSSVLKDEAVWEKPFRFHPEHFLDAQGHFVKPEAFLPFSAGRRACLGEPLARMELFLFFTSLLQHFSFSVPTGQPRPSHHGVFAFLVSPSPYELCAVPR

[3] = Stability in human plasma assessed as compound remaining at 100 uM measured after 30 mins by LC-MS/MS analysis; format: ADME, cell-free; settings: read-out: Stability
[4] = Cytotoxicity against HUVEC assessed as inhibition of cell viability incubated for 48 hrs by CellTiter Glo assay; format: toxicity, cell-based; settings: human, HUVEC cells
A549/TR = experiment: Reversal of drug resistance in human A549/Taxol cells assessed as increase in paclitaxel-induced cytotoxicity incubated for 48 hrs by CCK-8 assay; format: functional, cell-based; settings: dose 2.5-10 µM
Cytochrome P450 1A1 = target: T1, Cytochrome P450 1A1 (Homo sapiens, UniProt P04798); experiment: Inhibition of human recombinant CYP1A1 using 7-ethoxyresorufin as substrate incubated under dark condition for 15 mins in presence of NADPH by EROD fluorescence assay; format: ADME
T1 sequence (P04798 whole entry): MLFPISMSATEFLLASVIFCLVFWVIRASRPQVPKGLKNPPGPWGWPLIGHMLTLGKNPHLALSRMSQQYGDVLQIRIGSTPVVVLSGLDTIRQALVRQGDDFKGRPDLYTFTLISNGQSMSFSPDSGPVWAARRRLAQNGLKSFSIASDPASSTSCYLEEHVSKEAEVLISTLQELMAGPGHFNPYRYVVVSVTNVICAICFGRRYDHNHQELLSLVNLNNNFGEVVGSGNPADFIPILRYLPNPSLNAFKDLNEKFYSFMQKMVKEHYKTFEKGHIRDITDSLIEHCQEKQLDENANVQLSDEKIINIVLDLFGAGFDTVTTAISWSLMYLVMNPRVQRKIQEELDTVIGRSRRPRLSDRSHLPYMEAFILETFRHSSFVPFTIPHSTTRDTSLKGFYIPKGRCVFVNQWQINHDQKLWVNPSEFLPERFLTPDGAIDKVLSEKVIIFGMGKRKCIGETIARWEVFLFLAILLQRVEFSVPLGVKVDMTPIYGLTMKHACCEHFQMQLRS

Homo sapiens [5] = species on record: Homo sapiens; experiment: Selectivity index, ratio of IC50 for human recombinant CYP1A1 to IC50 for human recombinant CYP1B1 using 7-ethoxyresorufin as substrate
CYP2C19 = CYP2C19 (Homo sapiens, UniProt P33261); experiment: Inhibition of CYP2C19 in human liver microsome at 10 uM pre-incubated with compound for 5 mins followed NADPH addition and measured after 30 mins by LC-MS/MS analysis relative to control; format: ADME; settings: liver microsomes, time 35 min
Chain of CYP2C19 (P33261 whole entry): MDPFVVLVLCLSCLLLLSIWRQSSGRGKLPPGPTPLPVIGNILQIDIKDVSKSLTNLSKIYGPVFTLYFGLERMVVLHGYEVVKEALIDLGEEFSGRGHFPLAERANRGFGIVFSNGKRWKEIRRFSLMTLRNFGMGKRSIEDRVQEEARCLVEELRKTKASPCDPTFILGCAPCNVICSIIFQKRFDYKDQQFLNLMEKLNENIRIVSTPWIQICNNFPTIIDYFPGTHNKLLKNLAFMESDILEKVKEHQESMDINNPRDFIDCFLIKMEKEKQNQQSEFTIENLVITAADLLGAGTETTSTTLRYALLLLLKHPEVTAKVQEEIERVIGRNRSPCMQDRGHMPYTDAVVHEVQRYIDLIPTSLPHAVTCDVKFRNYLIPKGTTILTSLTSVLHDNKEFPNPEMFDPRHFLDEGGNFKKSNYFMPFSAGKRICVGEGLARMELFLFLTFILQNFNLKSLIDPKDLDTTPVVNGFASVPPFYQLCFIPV

[6] = Stability in human plasma assessed as compound remaining at 100 uM measured after 15 mins by LC-MS/MS analysis; format: ADME, cell-free; settings: read-out: Stability
CYP3A4 = CYP3A4 (Homo sapiens, UniProt P08684); experiment: Inhibition of CYP3A4 in human liver microsome at 10 uM pre-incubated with compound for 5 mins followed NADPH addition and measured after 5 mins by LC-MS/MS analysis relative to control; format: ADME; settings: liver microsomes, time 10 min
Chain of CYP3A4 (P08684 whole entry): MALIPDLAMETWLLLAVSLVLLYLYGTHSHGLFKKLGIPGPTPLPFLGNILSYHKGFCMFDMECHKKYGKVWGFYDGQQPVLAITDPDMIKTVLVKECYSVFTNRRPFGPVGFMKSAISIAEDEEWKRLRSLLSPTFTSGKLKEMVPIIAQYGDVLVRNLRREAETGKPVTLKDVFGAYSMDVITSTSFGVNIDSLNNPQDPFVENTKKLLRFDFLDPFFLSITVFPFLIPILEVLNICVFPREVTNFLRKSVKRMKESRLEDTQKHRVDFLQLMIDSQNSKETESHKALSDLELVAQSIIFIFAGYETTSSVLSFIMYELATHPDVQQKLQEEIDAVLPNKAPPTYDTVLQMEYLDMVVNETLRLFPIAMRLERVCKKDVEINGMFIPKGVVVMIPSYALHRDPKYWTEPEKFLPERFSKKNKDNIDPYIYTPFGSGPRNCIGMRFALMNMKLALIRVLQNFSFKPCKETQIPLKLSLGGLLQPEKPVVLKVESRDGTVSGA

[7] = Metabolic stability in liver microsomes (unknown origin) assessed as compound remaining at 0.5 mg/ml measured after 30 mins in presence of NADPH regenerating system by LC-MS/MS analysis relative to control; format: ADME, Microsome; settings: read-out: Stability
[8] = Metabolic stability in liver microsomes (unknown origin) assessed as compound remaining at 0.5 mg/ml measured after 60 mins in presence of NADPH regenerating system by LC-MS/MS analysis relative to control; format: ADME, Microsome; settings: read-out: Stability
A549 = experiment: Antiproliferative against human A549 cells assessed as inhibition of cell viability incubated for 48 hrs by CCK-8 assay; format: functional, cell-based; settings: A549, 48 h
[9] = Metabolic stability in liver microsomes (unknown origin) assessed as compound remaining at 0.5 mg/ml measured after 15 mins in presence of NADPH regenerating system by LC-MS/MS analysis relative to control; format: ADME, Microsome; settings: read-out: Stability
[10] = Metabolic stability in liver microsomes (unknown origin) assessed as compound remaining at 0.5 mg/ml measured immediately in presence of NADPH regenerating system by LC-MS/MS analysis relative to control; format: ADME, Microsome; settings: read-out: Stability
Cytochrome P450 1A2 = target: T2, Cytochrome P450 1A2 (Homo sapiens, UniProt P05177); experiment: Inhibition of human recombinant CYP1A2 using 7-ethoxyresorufin as substrate incubated under dark condition for 45 mins in presence of NADPH by EROD fluorescence assay; format: ADME
T2 sequence (P05177 whole entry): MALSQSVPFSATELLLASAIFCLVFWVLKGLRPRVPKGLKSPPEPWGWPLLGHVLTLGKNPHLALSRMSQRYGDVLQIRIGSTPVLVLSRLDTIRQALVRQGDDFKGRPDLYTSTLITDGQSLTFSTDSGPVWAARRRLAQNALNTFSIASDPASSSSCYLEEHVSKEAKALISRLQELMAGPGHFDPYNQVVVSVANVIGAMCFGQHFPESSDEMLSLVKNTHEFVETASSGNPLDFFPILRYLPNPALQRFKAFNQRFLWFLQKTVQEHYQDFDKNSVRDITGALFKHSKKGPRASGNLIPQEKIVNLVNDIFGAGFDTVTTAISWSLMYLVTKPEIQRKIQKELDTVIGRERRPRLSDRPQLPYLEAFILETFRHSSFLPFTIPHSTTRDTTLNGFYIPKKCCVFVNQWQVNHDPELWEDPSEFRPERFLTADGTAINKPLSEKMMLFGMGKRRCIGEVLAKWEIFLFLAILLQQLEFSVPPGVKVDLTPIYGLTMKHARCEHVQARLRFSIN

[11] = Cytotoxicity against human BEAS-2B cells assessed as inhibition of cell viability incubated for 48 hrs by CCK-8 assay; format: toxicity, cell-based
Homo sapiens [12] = species on record: Homo sapiens; experiment: Selectivity index, ratio of IC50 for human recombinant CYP1A2 to IC50 for human recombinant CYP1B1 using 7-ethoxyresorufin as substrate
[13] = Stability in human plasma assessed as compound remaining at 100 uM measured after 60 mins by LC-MS/MS analysis; format: ADME, cell-free; settings: read-out: Stability

Structure (SMILES)	remaining at 5 min, 100 µM [1] [%]	half-life at 100 µM [2] [h]	inhibition at 10 min, 10 µM (CYP2D6) [%]	remaining at 0.5 h, 100 µM [3] [%]	IC50 at 48 h [4] [µM]	Activity (A549/TR)	IC50 (Cytochrome P450 1A1) [µM]	Ratio IC50 (Homo sapiens [5])	inhibition at 0.5 h, 10 µM (CYP2C19) [%]	remaining at 0.25 h, 100 µM [6] [%]	inhibition at 5 min, 10 µM (CYP3A4) [%]	remaining at 0.5 h [7] [%]	remaining at 1 h [8] [%]	IC50 (A549) [µM]	remaining at 0.25 h [9] [%]	remaining at 0 min [10] [%]	IC50 (Cytochrome P450 1A2) [µM]	IC50 at 48 h [11] [µM]	Ratio IC50 (Homo sapiens [12])	remaining at 1 h, 100 µM [13] [%]
O=C(Nc1cc(Cl)cc(Cl)c1)c1nc(-c2cccc(Cl)c2)cs1	87.1	> 2	0	106	> 40	Dose-dependent-effect	> 100	> 67500	7.73	104	0.94	98.2	96.6	7.5	102	100	> 80	> 20	> 54000	96.1
N#Cc1ccc(-c2csc(C(=O)Nc3ccc(C(F)(F)F)cc3)n2)cc1	99	> 2	23.1	110	> 40	Dose-dependent-effect	0.0773	1550	60.8	94.2	77.1	72.5	54.3	> 20	80.4	100	> 10	> 20	> 200000	100
N#Cc1ccc(-c2csc(C(=O)Nc3cc(Cl)cc(Cl)c3)n2)cc1	106	> 2	0	116	> 40	Dose-dependent-effect; Compound Showed Robust Reversal Activity	> 100	> 56400	1.45	102	86.6	102	97.1	> 20	101	100	> 100	> 20	> 56400	114
